What was measured:
[1] = test system: IK/SK channels in SMCs from PAs; test: Whole-cell patch-clamp in freshly isolated SMCs from small PAs; assay type: cell-based, mouse; settings: NS309 1 μmol/L
Protocol: For SMC isolation (27), arterial segments were transferred to a 12×75 mm borosilicate glass culture tube containing 1 mL dissociation solution (145 mmol/L NaCl; 4 mmol/L KCl; 1 mmol/L MgCl2; 10 mmol/L HEPES; 0.05 mmol/L CaCl2), 10 mmol/L glucose; pH 7.3) and 0.5 mg/mL bovine serum albumin (BSA) and incubated for 10 minutes at room temperature (˜24° C.). The solution was then replaced with 1 mL dissociation solution containing 1 mg/mL papain (Sigma Aldrich) and 0.5 mg/mL dithiothreitol (Sigma Aldrich), and incubation was continued at 37° C. for 20 minutes. […]
Whole-cell currents were measured at room temperature using conventional whole-cell patch-clamp electrophysiology. […] The pipette solution for conventional patch clamp consisted of 10 mmol/L HEPES, 123.2 mmol/L KCl, 10 mmol/L NaCl, 5.5 mmol/L MgCl2, 0.2 mmol/L CaCl2) and 5 mmol/L HEDTA (adjusted to pH 7.2 with 16.8 mm KOH) and contained 3 μm free-Ca^2+ and 1 mmol/L free-Mg^2+, as calculated using the Max-Chelator program (Chris Patton; Stanford University; Stanford; CA; USA). […] Data were acquired using a Multiclamp 700B amplifier connected to a Digidata 1550B system and analyzed using Clampfit 11.1 software (Molecular Devices, San Jose, CA, USA).
NS309-induced ionic currents were measured in freshly isolated SMCs (FIG. 4A) from PAs in whole-cell patch-clamp experiments (FIGS. 4B and 4C).

[2] = test system: pulmonary arteries from PH patient; test: Pressure myography of small pulmonary arteries from a human subject with PH; settings: ~50 μm arteries at 15 mm Hg pre-constricted with U46619; n=3 arteries
Source text: We tested whether IK/SK channel activation dilates pulmonary arteries from human subjects with PH. Deidentified human lung wedge samples were obtained from explanted lung during lung transplantation surgeries in a PH patient, in accordance with the policies of the University of Virginia Institutional Review Board (IRB #19044). Informed consent was obtained after the nature and possible consequences of the studies were explained. Multiple small pulmonary arteries (˜50 μm) were dissected and used for pressure myography experiments. Pulmonary arteries were cannulated at both ends and pressurized to a physiological intraluminal pressure of 15 mm Hg. The arteries were pre-constricted using U46619 (U466, thromboxane A2 receptor agonist, FIG. 6). Addition of NS309 (IK/SK channel agonist) dilated the pulmonary arteries from PH patient (FIG. 6).

## O=C1Nc2c(ccc(Cl)c2Cl)C1=NO [NS309, 6,7-dichloro-1H-indole-2,3-dione 3-oxime]
[1]
  Outward currents at 0 mV in SMCs, N vs Su+CH: not different between SMCs from PAs of N and Su+CH mice
[2]
  Dilation of human PH pulmonary arteries: dilated
